Reference: patent US9908926B2, “Protein-based molecular temperature switch” (ARIZONA BOARD OF REGENTS ON BEHALF OF ARIZONA STATE …, priority 2014, dated 2018)

Key:
TRPM8 protein domain = TRPM8 protein domain (Homo sapiens, UniProt Q7Z2W7); assay: Activation of TRPM8 by menthol (shift of activation curve); format: biochemical; settings: FIG. 5
Excerpt: FIG. 3 illustrates the regulation of the ion channel via cold temperature change to an open channel within the protein membrane. The TRPM8 protein domain is weakly voltage-dependant and polymodal in that it can be activated with more than one agonist.

[1] = system: human bladder cancer cell lines; settings: cited from earlier work

Sequence of TRPM8 protein domain (Q7Z2W7 whole entry, the tested form may be a part): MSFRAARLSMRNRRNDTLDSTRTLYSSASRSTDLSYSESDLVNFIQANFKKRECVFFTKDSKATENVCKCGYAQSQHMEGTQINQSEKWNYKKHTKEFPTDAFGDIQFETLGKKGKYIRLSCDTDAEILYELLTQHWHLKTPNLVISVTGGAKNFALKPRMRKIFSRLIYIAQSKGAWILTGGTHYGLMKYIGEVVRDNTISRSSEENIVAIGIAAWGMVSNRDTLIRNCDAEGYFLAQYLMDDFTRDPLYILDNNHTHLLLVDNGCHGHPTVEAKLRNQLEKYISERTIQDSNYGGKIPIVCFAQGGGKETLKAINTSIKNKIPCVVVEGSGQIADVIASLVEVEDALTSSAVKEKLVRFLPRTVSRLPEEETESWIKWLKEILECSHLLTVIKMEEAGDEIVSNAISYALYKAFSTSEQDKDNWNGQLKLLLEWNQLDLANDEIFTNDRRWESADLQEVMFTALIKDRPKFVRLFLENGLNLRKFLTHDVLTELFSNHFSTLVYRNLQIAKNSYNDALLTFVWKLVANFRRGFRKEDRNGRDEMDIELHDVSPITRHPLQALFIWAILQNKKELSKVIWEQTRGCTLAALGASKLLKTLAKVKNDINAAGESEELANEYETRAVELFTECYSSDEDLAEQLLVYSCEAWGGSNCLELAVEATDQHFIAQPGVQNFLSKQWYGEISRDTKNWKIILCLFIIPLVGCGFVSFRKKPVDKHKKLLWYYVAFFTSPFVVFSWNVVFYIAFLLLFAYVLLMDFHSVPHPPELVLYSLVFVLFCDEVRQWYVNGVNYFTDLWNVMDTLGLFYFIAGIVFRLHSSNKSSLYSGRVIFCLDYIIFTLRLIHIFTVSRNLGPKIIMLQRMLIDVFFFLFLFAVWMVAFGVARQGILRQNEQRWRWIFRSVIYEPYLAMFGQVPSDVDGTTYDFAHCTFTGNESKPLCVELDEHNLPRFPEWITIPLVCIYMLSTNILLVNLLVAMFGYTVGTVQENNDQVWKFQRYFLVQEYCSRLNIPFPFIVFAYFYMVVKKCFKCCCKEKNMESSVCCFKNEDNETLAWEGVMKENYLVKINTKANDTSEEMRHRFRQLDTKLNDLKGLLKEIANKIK

CC1CCC(C(C)C)C(O)C1 (centres unmarked) [menthol]
activation of the TRPM8 protein domain (TRPM8 protein domain): activates the TRPM8 protein domain by shifting the activation curve | cell death [1]: induces cell death in human bladder cancer cell lines
